According to paper PMC8513920 (Chemical Science, 2021):
Values after ≈ are worked out from the molar mass of the structure shown.

Experiment: High-throughput Equilibrium Solubility measurement
Format: physicochemical
Settings: phosphate buffer, pH 6.8

solubility: 17 µM (≈ 6.4 µg/mL)
Compound: N#Cc1c[nH]c2c(C(=O)N3CCN(CCc4ccc(F)cc4)CC3)cccc12 [compound 3, pruvanserin]
